According to PMC8826350, “Structural feature-driven pattern analysis for multitarget modulator landscapes” (Bioinformatics, 2021):

What was measured:
ABCB1 [1] = biological target: T1, ABCB1 (Homo sapiens, UniProt P08183); test: Calcein AM assay (plate reader), ABCB1-overexpressing A2780/ADR cells
ABCC1 [2] = biological target: T2, ABCC1 (Homo sapiens, UniProt P33527); test: Calcein AM assay (plate reader), ABCC1-overexpressing H69AR cells; settings: for IC50±SEM ABCC1 Calcein AM: H69AR cells, curve top constrained to reference 7; for mode of modulation of ABCC1 (in words): initial screening at 10 µM, calcein AM assay
ABCG2 [3] = biological target: T3, ABCG2 (Homo sapiens, UniProt Q9UNQ0); test: Pheophorbide A assay (flow cytometry), ABCG2-overexpressing MDCK II BCRP cells; assay type: cell-based; design: host or cells: MDCK II; settings: curve top constrained to reference 8, read-out: IC50±SEM ABCG2 Pheophorbide A
T3 sequence (Q9UNQ0 1-655): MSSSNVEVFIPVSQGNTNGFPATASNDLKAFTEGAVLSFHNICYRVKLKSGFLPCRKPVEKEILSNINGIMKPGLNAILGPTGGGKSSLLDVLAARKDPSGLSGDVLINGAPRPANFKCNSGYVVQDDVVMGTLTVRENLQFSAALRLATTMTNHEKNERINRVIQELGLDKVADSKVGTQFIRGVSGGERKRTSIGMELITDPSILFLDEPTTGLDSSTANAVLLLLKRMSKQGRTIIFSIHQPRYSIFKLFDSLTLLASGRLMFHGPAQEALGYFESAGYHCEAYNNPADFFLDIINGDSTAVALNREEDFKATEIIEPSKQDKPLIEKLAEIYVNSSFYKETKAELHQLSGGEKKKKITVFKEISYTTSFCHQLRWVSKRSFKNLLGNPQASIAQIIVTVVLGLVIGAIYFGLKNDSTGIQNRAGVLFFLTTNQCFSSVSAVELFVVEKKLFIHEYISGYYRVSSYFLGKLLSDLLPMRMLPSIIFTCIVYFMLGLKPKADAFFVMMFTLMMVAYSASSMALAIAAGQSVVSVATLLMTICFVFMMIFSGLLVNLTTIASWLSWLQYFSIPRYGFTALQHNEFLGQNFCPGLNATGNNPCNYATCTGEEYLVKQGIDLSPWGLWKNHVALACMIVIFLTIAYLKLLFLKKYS

ABCB1 [4] = biological target: T1, ABCB1; test: Daunorubicin accumulation assay (flow cytometry), A2780/ADR cells
ABCC1 [5] = biological target: T2, ABCC1; test: Daunorubicin accumulation assay (flow cytometry), H69AR cells
ABCG2 [6] = biological target: T3, ABCG2; test: Hoechst 33342 assay (plate reader), MDCK II BCRP cells
Method: The fluorescence accumulation at an excitation wavelength of 360 nm and an emission wavelength of 460 nm was measured over a period of 120 min in 60 s intervals using a Paradigm microplate reader [Beckman Coulter (Brea, CA, USA)]. The average steady-state fluorescence value was calculated for each well and correlated to the used compound concentration.

T2 sequence (P33527 whole entry): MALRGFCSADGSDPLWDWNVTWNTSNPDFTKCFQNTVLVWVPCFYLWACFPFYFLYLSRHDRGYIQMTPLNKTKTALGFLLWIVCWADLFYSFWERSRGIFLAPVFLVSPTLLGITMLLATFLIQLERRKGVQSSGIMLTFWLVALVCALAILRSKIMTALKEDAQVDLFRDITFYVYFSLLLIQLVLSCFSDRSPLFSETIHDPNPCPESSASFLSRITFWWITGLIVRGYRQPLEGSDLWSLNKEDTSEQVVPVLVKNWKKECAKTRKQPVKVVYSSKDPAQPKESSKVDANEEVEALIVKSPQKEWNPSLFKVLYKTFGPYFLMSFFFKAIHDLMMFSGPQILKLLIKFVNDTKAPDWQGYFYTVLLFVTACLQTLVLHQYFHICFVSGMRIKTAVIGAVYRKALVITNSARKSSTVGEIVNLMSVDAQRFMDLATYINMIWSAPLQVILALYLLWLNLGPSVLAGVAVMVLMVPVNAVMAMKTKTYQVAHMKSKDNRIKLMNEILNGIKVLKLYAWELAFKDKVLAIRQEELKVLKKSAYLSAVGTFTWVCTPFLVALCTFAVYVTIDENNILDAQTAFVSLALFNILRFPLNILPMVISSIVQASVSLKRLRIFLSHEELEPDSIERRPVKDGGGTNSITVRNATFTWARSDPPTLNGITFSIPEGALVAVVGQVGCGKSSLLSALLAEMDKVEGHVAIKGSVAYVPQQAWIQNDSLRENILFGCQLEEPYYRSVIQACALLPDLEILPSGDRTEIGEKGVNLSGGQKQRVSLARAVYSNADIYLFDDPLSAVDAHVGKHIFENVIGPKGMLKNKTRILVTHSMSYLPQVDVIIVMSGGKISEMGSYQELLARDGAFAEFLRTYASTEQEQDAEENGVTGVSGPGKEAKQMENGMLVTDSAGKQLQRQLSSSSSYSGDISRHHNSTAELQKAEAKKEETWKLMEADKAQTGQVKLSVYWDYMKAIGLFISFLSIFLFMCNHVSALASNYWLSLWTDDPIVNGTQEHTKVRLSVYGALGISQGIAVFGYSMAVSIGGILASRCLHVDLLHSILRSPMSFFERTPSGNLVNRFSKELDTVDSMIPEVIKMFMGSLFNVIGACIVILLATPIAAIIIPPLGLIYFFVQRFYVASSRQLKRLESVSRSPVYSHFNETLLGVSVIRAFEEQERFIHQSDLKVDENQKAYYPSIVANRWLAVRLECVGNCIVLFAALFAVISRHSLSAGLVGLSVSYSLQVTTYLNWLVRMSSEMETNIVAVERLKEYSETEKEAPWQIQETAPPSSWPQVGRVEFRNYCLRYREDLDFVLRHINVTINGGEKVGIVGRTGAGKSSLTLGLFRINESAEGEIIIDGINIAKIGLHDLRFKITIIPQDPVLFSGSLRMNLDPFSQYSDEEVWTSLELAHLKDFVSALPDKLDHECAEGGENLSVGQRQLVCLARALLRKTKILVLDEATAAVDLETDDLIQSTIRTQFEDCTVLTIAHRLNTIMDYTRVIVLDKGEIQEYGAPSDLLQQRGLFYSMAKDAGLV
T1 sequence (P08183 whole entry): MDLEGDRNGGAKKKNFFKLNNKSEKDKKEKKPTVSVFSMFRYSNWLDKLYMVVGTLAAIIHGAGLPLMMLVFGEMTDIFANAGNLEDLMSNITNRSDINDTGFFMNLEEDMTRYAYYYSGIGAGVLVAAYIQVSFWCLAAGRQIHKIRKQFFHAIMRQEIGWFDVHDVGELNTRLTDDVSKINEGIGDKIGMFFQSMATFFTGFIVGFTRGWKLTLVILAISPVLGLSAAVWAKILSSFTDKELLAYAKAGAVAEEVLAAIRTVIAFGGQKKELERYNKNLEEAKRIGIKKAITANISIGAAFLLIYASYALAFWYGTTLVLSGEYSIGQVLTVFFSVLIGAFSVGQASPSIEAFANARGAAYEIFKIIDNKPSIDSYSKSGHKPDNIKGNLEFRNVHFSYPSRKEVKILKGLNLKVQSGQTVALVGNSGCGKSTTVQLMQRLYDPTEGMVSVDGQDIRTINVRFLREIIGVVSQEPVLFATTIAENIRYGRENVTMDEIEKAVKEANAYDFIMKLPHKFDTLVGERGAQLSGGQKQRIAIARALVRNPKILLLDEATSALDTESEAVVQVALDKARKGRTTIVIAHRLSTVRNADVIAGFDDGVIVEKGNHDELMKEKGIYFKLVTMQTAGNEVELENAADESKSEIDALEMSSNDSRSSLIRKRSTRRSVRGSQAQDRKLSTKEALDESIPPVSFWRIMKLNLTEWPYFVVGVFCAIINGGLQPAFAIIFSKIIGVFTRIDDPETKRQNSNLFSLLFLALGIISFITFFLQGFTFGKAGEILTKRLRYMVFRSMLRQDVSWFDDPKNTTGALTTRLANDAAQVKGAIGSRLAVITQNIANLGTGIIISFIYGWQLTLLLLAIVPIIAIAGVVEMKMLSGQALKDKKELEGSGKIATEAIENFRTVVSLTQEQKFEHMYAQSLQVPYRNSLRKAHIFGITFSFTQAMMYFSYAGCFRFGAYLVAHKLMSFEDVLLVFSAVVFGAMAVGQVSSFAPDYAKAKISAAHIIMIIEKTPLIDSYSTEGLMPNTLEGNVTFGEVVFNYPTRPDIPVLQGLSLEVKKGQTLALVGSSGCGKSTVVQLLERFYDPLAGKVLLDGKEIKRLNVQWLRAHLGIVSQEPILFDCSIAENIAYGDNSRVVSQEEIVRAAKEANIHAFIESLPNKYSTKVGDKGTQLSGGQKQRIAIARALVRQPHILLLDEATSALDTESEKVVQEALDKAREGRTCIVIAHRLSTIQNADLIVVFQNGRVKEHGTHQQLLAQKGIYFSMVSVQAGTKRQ

Row | SMILES | IC50 (ABCB1 [1]) [µM] | IC50±SEM ABCC1 Calcein AM (ABCC1 [2]) | mode of modulation of ABCC1 (in words) (ABCC1 [2]) | IC50 (ABCG2 [3]) [µM] | IC50 (ABCB1 [4]) [µM] | IC50 (ABCC1 [2]) [µM] | IC50 (ABCC1 [5]) [µM] | IC50 (ABCG2 [6]) [µM]
1 | Cc1ccccc1Cn1c(N2CCN(CCc3ccccc3)CC2)nc2c1c(=O)[nH]c(=O)n2C [Compound 1] | 22.7 ± 5.4 | n.i. | apparent slight activation of ABCC1 | 7.89 ± 0.44 | – | – | – | –
2 | O=C(C1c2ccccc2Oc2ccccc21)N1CCN(Cc2nnnn2-c2ccc(F)cc2)CC1 [Compound 4] | 15.5 ± 1.3 | n.i. | – | 15.1 ± 1.2 | – | – | – | –
3 | COc1ccc(OCc2noc(CN3CCN(C(=O)C45CC6CC(CC(C6)C4)C5)CC3)n2)cc1 [Compound 5] | 25.6 ± 1.1 | – | – | 12.4 ± 1.3 | 80.2 ± 30.1 | 60.9 ± 14 | 57 ± 6.5 | 28.5 ± 6.1
4 | Cn1c(=O)n(C)c2cc(S(=O)(=O)N3CCN(C(c4ccccc4)c4ccccc4)CC3)ccc21 [Compound 2] | 8.26 ± 0.54 | n.i. | apparent slight activation of ABCC1 | 25.8 ± 12.1 | – | – | – | –
5 | Cc1onc(-c2ccccc2Cl)c1C(=O)N1CCN(Cc2nnnn2-c2ccc(F)cc2)CC1 [Compound 3] | – | – | – | 15.9 ± 1.1 | – | 38.6 ± 2.2 | 38.7 ± 15.2 | 37.9 ± 12.5
